Results: patent publication US9693992B2 (MannKind Corporation, priority 2010, dated 2017)

molecular target: IRE-1α (Homo sapiens (Human), UniProt O75460); experiment: Cellular EC50: endogenous XBP-1 splicing in myeloma cells (MM.1s, DTT stress, RT-PCR); assay type: cell-based; details: average cellular EC50, XBP-1 splicing in myeloma cells
Description: Human myeloma MM.1s cells are incubated with a compound for 1.25 hours before stressing the cells with 2 mM dithiothreitol (DTT). After an additional 45 minutes (2 hours total) with compound and DTT, the cells are harvested with TRIZOL® (a mono-phasic solution of phenol and guanidine isothiocyanate), and total RNA is prepared as directed by the manufacturer (Invitrogen). Human XBP-1 is amplified by RT-PCR with the following primers, which flank the 26 base unconventional intron excised by IRE-1α:
RT-PCR of unstressed (U) cells then generates the upper band. When cells are stressed (S) with the endoplasmic reticulum (ER) stressing agent DTT, IRE-1α is activated due to accumulating unfolded protein and the resulting RT-PCR product is 26 base pairs shorter.
Compounds which pass specificity assays are assayed for cellular EC50 using endogenous XBP-1 splicing in myeloma cells. XBP-1 is regulated through the excision of a 26 nucleotide intron from the XBP-1 mRNA by the highly specific endoribonuclease activity of IRE-1α. […] This splicing event is used to measure IRE-1α activity on XBP-1 mRNA in cells and tissues.
Briefly, compounds are incubated in the presence or absence of an ER stress agent (e.g., DTT), and the ratio of XBP-1u (unspliced) to XBP-1s (spliced) is quantified by RT-PCR. The ED50 is determined as the 50% XBP-1s to total XPB-1 levels.

Chain of IRE-1α (O75460 19-977): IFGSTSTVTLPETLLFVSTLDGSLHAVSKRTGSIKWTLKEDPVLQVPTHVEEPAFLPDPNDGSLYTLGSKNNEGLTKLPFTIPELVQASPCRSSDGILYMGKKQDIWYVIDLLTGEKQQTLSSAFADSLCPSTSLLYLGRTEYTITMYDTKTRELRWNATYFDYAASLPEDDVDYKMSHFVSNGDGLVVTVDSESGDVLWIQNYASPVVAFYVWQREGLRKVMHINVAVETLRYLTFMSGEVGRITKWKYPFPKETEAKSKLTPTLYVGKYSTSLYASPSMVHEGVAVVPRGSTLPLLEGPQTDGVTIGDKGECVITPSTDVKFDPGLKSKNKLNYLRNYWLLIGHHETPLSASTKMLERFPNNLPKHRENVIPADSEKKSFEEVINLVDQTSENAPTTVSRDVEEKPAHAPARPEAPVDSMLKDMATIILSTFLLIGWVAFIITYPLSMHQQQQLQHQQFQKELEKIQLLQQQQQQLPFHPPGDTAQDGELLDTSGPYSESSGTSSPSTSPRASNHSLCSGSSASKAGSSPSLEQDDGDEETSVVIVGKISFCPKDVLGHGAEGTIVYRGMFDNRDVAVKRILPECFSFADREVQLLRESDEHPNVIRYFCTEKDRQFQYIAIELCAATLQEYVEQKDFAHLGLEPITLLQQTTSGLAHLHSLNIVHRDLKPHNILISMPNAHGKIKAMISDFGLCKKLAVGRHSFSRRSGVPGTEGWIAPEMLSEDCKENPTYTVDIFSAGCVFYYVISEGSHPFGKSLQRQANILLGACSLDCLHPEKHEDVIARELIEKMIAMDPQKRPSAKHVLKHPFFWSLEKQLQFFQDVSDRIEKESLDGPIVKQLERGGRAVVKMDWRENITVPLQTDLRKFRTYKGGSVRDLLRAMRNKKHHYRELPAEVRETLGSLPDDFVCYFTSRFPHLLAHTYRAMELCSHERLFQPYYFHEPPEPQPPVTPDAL

| EC50 [µM] | Structure (SMILES) |
| --- | --- |
| < 10 | Cc1c(-c2ccc(C(=O)NCCN3CCOCC3)cc2)c(=O)oc2c(C=O)c(O)ccc12 [Example 3] |
| > 10 | O=Cc1c(O)ccc2cc(C(=O)O)c(=O)oc12 [Example 8] |
| < 10 | Cc1c(-c2cccc(C(=O)N3CCN(C)CC3)c2)c(=O)oc2c(C=O)c(O)ccc12 [Example 10] |
| < 10 | Cc1c(-c2cccc(C(=O)NCCN3CCOCC3)c2)c(=O)oc2c(C=O)c(O)ccc12 [Example 11] |
| < 10 | Cc1c(-c2ccc(C(=O)N3CCOCC3)cc2)c(=O)oc2c(C=O)c(O)ccc12 [Example 12] |
| < 10 | Cc1c(-c2ccc(N3CCN(C)CC3)nc2)c(=O)oc2c(C=O)c(O)ccc12 [Example 14] |
| < 10 | Cc1c(CCC(=O)N2CCN(C)CC2)c(=O)oc2c(C=O)c(O)ccc12 [Example 15] |
| < 10 | Cc1c(-c2ccc(C(=O)N(C)C)cc2)c(=O)oc2c(C=O)c(O)ccc12 [Example 17] |
| > 10 | Cc1c(-c2cccc(C(=O)N(C)C)c2)c(=O)oc2c(C=O)c(O)ccc12 [Example 20] |
| < 10 | Cc1cc(=O)oc2c(C=O)c(O)c(Cl)cc12 [Example 22] |
| > 10 | O=Cc1c(O)ccc2c1CCN(Cc1ccccc1)C2 [Example 28] |
| > 10 | CN1CCN(C(=O)c2cnc(N3CCc4c(ccc(O)c4C=O)C3)s2)CC1 [Example 33] |
| > 10 | Cc1nc(N2CCc3c(ccc(O)c3C=O)C2)sc1C(=O)NC1CCNCC1 [Example 35] |
| > 10 | Cc1nc(N2CCc3c(ccc(O)c3C=O)C2)sc1C(=O)NC1CCN(C)CC1 [Example 36] |
| > 10 | Cc1nc(N2CCc3c(ccc(O)c3C=O)C2)sc1C(=O)NCCN1CCOCC1 [Example 37] |
| > 10 | CN1CCN(c2ncc(C(=O)N3CCc4c(ccc(O)c4C=O)C3)s2)CC1 [Example 38] |
| > 10 | CCc1cc2c(=O)c(-c3nc(C)cs3)coc2c(C=O)c1O [Example 39] |
| > 10 | O=Cc1c(O)ccc2c(=O)c(-c3cnn(-c4ccccc4)c3)coc12 [Example 40] |

| EC50 [µM] | Structure (SMILES) |
| --- | --- |
| < 10 | CN1CCN(C(=O)c2ccc(-c3ccc4c(C=O)c(O)ccc4n3)cc2)CC1 [Example 41] |
| < 10 | CN1CCN(C(=O)c2cccc(-c3ccc4c(C=O)c(O)ccc4n3)c2)CC1 [Example 42] |
| < 10 | O=Cc1c(O)ccc2nc(-c3ccc(C(=O)N4CCOCC4)cc3)ccc12 [Example 44] |
| < 10 | O=Cc1c(O)ccc2nc(-c3ccc(C(=O)NCCN4CCOCC4)cc3)ccc12 [Example 45] |
| < 10 | O=Cc1c(O)ccc2nc(-c3cccc(C(=O)NCCN4CCOCC4)c3)ccc12 [Example 46] |
| > 10 | O=Cc1c(O)ccc2nc(SCC(=O)O)[nH]c12 [Example 63] |
| > 10 | O=Cc1c(O)ccc2nc(-c3cccc(C(=O)O)c3)[nH]c12 [Example 64] |
| < 10 | COC(=O)c1cccc(-c2nc3ccc(O)c(C=O)c3[nH]2)c1 [Example 65] |
| > 10 | Cc1c(-c2ccc(C(=O)N3CCOCC3)cc2)c(=O)oc2c(C=O)c(O)c(Cl)cc12 [Example 67] |
| < 10 | CCOC(=O)c1sc(-c2cc3ccc(O)c(C=O)c3oc2=O)nc1C [Example 68] |
| > 10 | Cc1c(CC(=O)O)c(=O)oc2c(C=O)c(O)ccc12 [Example 70] |
| > 10 | Cc1oc2c(C=O)c(O)ccc2c(=O)c1CCC(=O)N1CCN(C)CC1 [Example 88] |
| > 10 | COc1cc2c(=O)c(CCC(=O)NCCN3CCOCC3)c(C)oc2c(C=O)c1O [Example 93] |
| > 10 | COc1cc2c(=O)c(CCC(=O)N3CCN(C)CC3)c(C)oc2c(C=O)c1O [Example 94] |
| < 10 | CCOC(=O)c1cnc(-c2cc3ccc(O)c(C=O)c3oc2=O)s1 [Example 106] |
| < 10 | CN1CCN(C(=O)c2cnc(-c3cc4ccc(O)c(C=O)c4oc3=O)s2)CC1 [Example 107] |
| < 10 | Cc1nc(-c2cc3ccc(O)c(C=O)c3oc2=O)sc1C(=O)N1CCN(C)CC1 [Example 108] |

| Structure (SMILES) | EC50 [µM] |
| --- | --- |
| CC(C)c1cc(=O)oc2c(C=O)c(O)ccc12 [Example 5] | < 10 |
